From a compilation of properties of binary mixtures (doi:10.1021/acs.jpcb.8b11892)

Test: xn = mol fraction of the nth substance listed
Conditions: 101 kPa

O + CCOS(=O)(=O)[O-].CC[n+]1ccn(C)c1
x2 = 0
Conditions | viscosity [mPa·s]
293.15 K | 0.97
298.15 K | 0.87
303.15 K | 0.78
313.15 K | 0.64

CCOS(=O)(=O)[O-].CC[n+]1ccn(C)c1 + O
Conditions | electrical conductivity, 298.15 K [S/m] | electrical conductivity, 313.15 K [S/m] | viscosity, 293.15 K [mPa·s] | viscosity, 298.15 K [mPa·s] | viscosity, 303.15 K [mPa·s] | viscosity, 313.15 K [mPa·s]
x1 = 0.001 | 0.29 | 0.39 | 0.99 | – | 0.81 | 0.66
x1 = 0.003 | – | – | 1.04 | – | 0.84 | –
x1 = 0.004 | 1.1 | 1.5 | 1.07 | 0.97 | 0.87 | 0.71
x1 = 0.006 | 1.5 | 2 | 1.14 | 1.02 | 0.91 | 0.74
x1 = 0.008 | 1.9 | – | 1.2 | 1.07 | 0.96 | –
x1 = 0.013 | 2.5 | – | 1.34 | 1.19 | 1.06 | –
x1 = 0.019 | 2.9 | – | 1.54 | 1.36 | 1.21 | –
x1 = 0.032 | 3.7 | 5.1 | 1.93 | 1.7 | 1.5 | 1.2
x1 = 0.047 | – | 5.7 | 2.48 | – | – | 1.51
x1 = 0.071 | 4.1 | 5.8 | 3.42 | 2.97 | 2.6 | 2.03
x1 = 0.103 | 3.7 | 5.4 | 4.8 | 4.14 | 3.59 | 2.77
x1 = 0.151 | 3.2 | – | – | 6.06 | 5.22 | –
x1 = 0.229 | 2.5 | 3.7 | 11 | 9.33 | 7.98 | 6
x1 = 0.303 | 2 | 3 | 15.2 | 12.9 | 10.9 | 8.15
x1 = 0.473 | 1.2 | 1.9 | 27.4 | 22.9 | 19.3 | 14.1
x1 = 0.588 | 0.92 | – | 39.5 | 32.7 | 27.2 | –
x1 = 0.642 | 0.81 | – | 46.7 | 38.3 | 31.7 | –
x1 = 1 | 0.4 | 0.73 | 122 | 95.5 | 75.4 | 49.4

CC[n+]1ccn(C)c1.O=S(=O)([O-])C(F)(F)F + O
Conditions | electrical conductivity, 298.15 K [S/m] | electrical conductivity, 313.15 K [S/m] | viscosity, 293.15 K [mPa·s] | viscosity, 298.15 K [mPa·s] | viscosity, 303.15 K [mPa·s] | viscosity, 313.15 K [mPa·s]
x1 = 0.001 | 0.28 | 0.37 | 1.01 | 0.9 | 0.81 | 0.67
x1 = 0.002 | 0.66 | 0.93 | 1.03 | 0.92 | 0.83 | 0.69
x1 = 0.004 | 1 | – | – | 0.96 | 0.86 | –
x1 = 0.005 | – | 1.8 | 1.11 | – | 0.88 | 0.72
x1 = 0.008 | 1.7 | 2.3 | 1.16 | 1.03 | – | 0.75
x1 = 0.012 | – | 3.1 | 1.26 | – | 0.99 | 0.82
x1 = 0.017 | – | – | 1.38 | – | – | –
x1 = 0.029 | 3.6 | – | – | 1.47 | 1.31 | –
x1 = 0.041 | – | 5.6 | – | – | 1.57 | 1.26
x1 = 0.064 | – | 6.4 | 2.48 | – | 1.92 | 1.52
x1 = 0.094 | 4.8 | 6.6 | 3.21 | 2.81 | 2.47 | 1.96
x1 = 0.137 | – | – | 4.24 | – | – | –
x1 = 0.216 | 3.9 | 5.7 | 6.17 | 5.37 | 4.71 | 3.69
x1 = 0.391 | 2.8 | 4.1 | 10.9 | 9.43 | – | 6.41
x1 = 0.463 | 2.4 | 3.4 | – | 11.8 | 10.3 | 7.95
x1 = 0.512 | 2.1 | 3.1 | 15.5 | 13.4 | 11.7 | 9.02
x1 = 0.73 | 1.5 | 2.2 | 27.3 | 23.3 | 20 | 15
x1 = 1 | 0.91 | 1.4 | 52.4 | 43.8 | 36.7 | 26.6
